The values that follow are results of earlier work, collected in patent US20190274302A1, “COMPOSITIONS FOR ACTIVE TREATING AND […] DISEASES” (priority 2018, published 2019).

Like-named read-outs stand apart in the source and are kept apart here.

Turning to `CC(=O)O` [acetic acid], the pH reads like this: (1 mM) 3.91; (10 mM) 3.39; (100 mM) 2.88.

For the compound `O=C1O[C@H]([C@@H](O)CO)C(O)=C1O` [ascorbic acid], the pH reads like this: (1 mM) 3.59; (10 mM) 3.04; (100 mM) 2.53.

As for `O=C(O)c1ccccc1` [benzoic acid], the pH by setting is: (1 mM) 3.66; (10 mM) 3.12; (100 mM) 2.60.

For the compound `O=C(O)/C=C(/CC(=O)O)C(=O)O` [cis-aconitic acid], the pH runs as follows: (1 mM) 3.05; (10 mM) 2.21; (100 mM) 1.55.

As to `O=C(O)CC(O)(CC(=O)O)C(=O)O` [citric acid], the pH is, setting by setting: (1 mM) 3.24; (10 mM) 2.62; (100 mM) 2.08.

Turning to `O=CO` [formic acid], the pH runs as follows: (1 mM) 3.47; (10 mM) 2.91; (100 mM) 2.38.

For the compound `CC(O)C(=O)O` (stereo not drawn) [lactic acid], the pH by setting is: (1 mM) 3.51; (10 mM) 2.96; (100 mM) 2.44.

Regarding `O=C(O)CC(O)C(=O)O` (stereo not drawn) [malic acid], the pH is on record as 3.33 (1 mM), 2.74 (10 mM) and 2.21 (100 mM).

Turning to `O=C(O)CC(=O)O` [malonic acid], the pH runs as follows: (1 mM) 3.17; (10 mM) 2.50; (100 mM) 1.94.

With `O=C(O)C(=O)O` [oxalic acid], the pH (1 mM) was 3.00, the pH (10 mM) is 2.09 and the pH (100 mM) is recorded as 1.31.

Turning to `Oc1ccccc1` [phenol], the pH was 6.47 (1 mM), 5.99 (10 mM) and 5.49 (100 mM).

With `CCC(=O)O` [propanoic acid], the pH is on record as 3.96 (1 mM), 3.44 (10 mM) and 2.94 (100 mM).

Regarding `O=C(O)c1ccccc1O` [salicylic acid], the pH is 3.21 (1 mM), 2.57 (10 mM) and 2.02 (100 mM).

In the case of `O=C(O)/C=C(\CC(=O)O)C(=O)O` [trans-aconitic acid], the pH reads like this: (1 mM) 3.14; (10 mM) 2.48; (100 mM) 1.92.
